This is an account of results in publication PMC9827864, “In Situ Inhibitor Synthesis and Screening by Fluorescence Polarization: An Efficient Approach for Accelerating Drug Discovery” (Angewandte Chemie (International Ed. in English), 2022).

“Also recorded” adds a separate entry of the source. A value given as a limit tells only on which side of the number the result lay.

A short description of series [1]: Metabolic stability in rat liver microsomes. The series is classed as in vitro ADME. As for the experimental part:
page 15: SUPPORTING INFORMATION 3. Molecular Modeling A structure of PHD2 in complex with Fe and a 2OG competing inhibitor (PDB ID: 4KBZ) was obtained from PDB website. The structure files of protein and compounds for docking were prepared using the Discovery Studio (DS) 2020 software. A water molecule HOH624, conserved in the active binding site of PHD2, was retained during the docking. Residues of PHD2 around the native ligand […] Subsequently, the ligand was removed; the Fe (II) was retained during the docking. Compounds were docked into the binding sites using GOLD 5.1. Docking procedures were performed using the default setting with 100 genetic algorithm (GA) runs of ligands. […] The samples were centrifuged at 5000 rpm f or 10 min; the supernatants were then analyzed by HPLC. […] Subsequently, these samples were analyzed for reticulocytes in the center for new drug safety evaluation and research of China Pharmaceutical University (ADVIA 2120 hematology system). 5.2 In vivo EPO increased assay Plasma EPO was evaluated using the erythropoietin quantikine ELISA kit for mice (MEP00B). […] Plasma was collected by centrifugation at 3000 rpm, these plasmas were detected by E PO ELISA. […] The hemoglobin of samples was analyzed in the center for new drug safety evaluation and research at China Pharmaceutical University (ADVIA 2120 hematology system). […]
(Microsomes from liver hold many membrane-bound enzymes, among them those of drug oxidation.)

The subject of series [2] is C57BL/6J mouse models of anemia induced by cisplatin. In words: Improvement of anemia induced by cisplatin administration. Conditions: cisplatin-induced anemia mice; for Improvement of anemia (%): po. The series is classed as in vivo. As for the experimental part: 5. Pharmacodynamic assay
The experimental mice (SPF, […], male) were obtained from SPF (Beijing) Biotechnology Co., Ltd (permit number: SCXK (Jing) 2019-0010). All animal related experiments were conducted under a China Pharmaceutical University (the certification of using the housing facility of laboratory animals: SYXK (Su) 2018 -0019) IACUC approved protocol in compliance with the guide for the care and use of laboratory animals (number: 202013705). […]
Representative compounds and Roxadustat were formulated in normal saline solution. […]
China Pharmaceutical University (ADVIA 2120 hematology system). […]
5.3 Improvement of anemia induced by cisplatin administration
C57BL/6J mice were treated with cisplatin ( po, 7 mg·kg-1) on days 0, 7, 14, and 28 of the experiment. On the 29th day, the animals were randomized into sham, control, and treated groups (n=5). […]
treatment anemia caused by cisplatin. The mice were treated with the compounds every alternate day for 30 days. the test sample is obtained via orbital venous plexus. The hemoglobin of samples was analyzed in the center for new drug safety evaluation and research at China Pharmaceutical University (ADVIA 2120 hematology system).

Series [3] concerns ICR mice. Description: Subacute oral toxicity assay. In kind it is in vivo. As for the experimental part:
6. Subacute and acute oral toxicity assay
The experimental mice (SPF, ICR, male and female) were obtained from Nantong University (permit number: SCXK (Su) 2019-0001). All animal related experiments were conducted under China Pharmaceutical University guidelines (certification of using the housing facility for laboratory animals: SYXK (Su) 2018-0019) IACUC approved protocols in compliance with the guide for the care and use of laboratory animals (number: 202013705).
6.1 Subacute oral toxicity assay
ICR mice were divided into 8 groups (n = 6), including 15 mg·kg-1, 50 mg·kg-1, 100 mg·kg-1 and vehicle groups for males and females, respectively. […] The body weight of the mice was recorded. […]
Experimental mice were treated with 17 through oral administration once. Body weight and the heart, kidney, liver, spleen, and lung weight were recorded. Blood was collected, and the samples were analyzed by blood biochemistry assays (CRE, AST, ALT, BUN).
A solution of aldehyde B82 (60 μL, 0.5 M, DMSO-d6), 4-methoxyaniline (2 μL, 6.0 M, DMSO -d6), mesitylene (100 μL, 0.1 M, DMSO - d6), and acylhydrazide A3 (100 μL, 0.1 M, DMSO -d6) was added to a mixture of DMSO -d6 (188 μL) and FP buffer D 2O (50 μL), in a 5 mm NMR tube; following incubation at room temperature, the sample was evaluated by a Bruker AV-400 instrument. […]

Regarding `O=C(N/N=C/c1cccc(O)c1Cl)c1cnc(-c2cccnn2)[nH]c1=O` [compound 17], in series [1] (after 50 min, 1 μM, 0.5 mg/mL), the “compound present (remaining) in liver microsomes” value is reported as > 80%. For the same molecule, in series [1] (pH 7.4, read-out: t1/2 in liver microsomes), the half-life at 1 μM is > 1.67 h. Also, in series [2] (po 5, 10, 20 mg kg−1, every alternate day for 30 days), the “hemoglobin (Hb) levels” value is “increased in a dose‐dependent manner”. In addition, the entries for the “Improvement of anemia (%)” value in series [2] (5 mg·kg^-1), in series [2] (10 mg·kg^-1) and in series [2] (20 mg·kg^-1) were 31.8%, 51.5% and 90.9%, respectively. Besides, the “H&E staining of major organs” value in series [3] (100 mg kg−1 oral, alternate days for two weeks) was “normal architecture comparable to the vehicle”. Besides, the “subacute oral toxicity findings (behavior, body weight, organ/body weight ratio, BUN, ALT, AST, CRE)” value in series [3] (oral, every other day for 14 days, 10 or 15, 50 and 100 mg kg−1) is reported as “no obvious abnormality; also recorded: did not exhibit any treatment-associated adverse effects”.
